# Laboratory results taken from patent US11952368B2, “FAPI dimer compound, FAPI dimer-based positron emission tomography (PET) imaging agent for tumor diagnosis, and preparation method and use thereof” (XIAMEN UNIVERSITY, priority 2021, dated 2024).
# Key:
# [1] = test system: HCC-PDX-1; experiment: PET imaging in HCC-PDX-1 model; format: in vivo, mouse
# Protocol: (§1) The PET imaging and biodistribution studies were conducted in HCC-PDX1 and HCC-PDX2 mouse models. The histological verification was first conducted, where the immunohistochemical staining and H&E staining were conducted for FAP and Ki67, a tumor tissue was digested for protein extraction, and the expression of FAP was detected by Western Blot. Verification results were shown in FIG. 6A-B, where the immunohistochemical staining result was shown in FIG. 6A and the Western Blot result was shown in FIG. 6B. […] Therefore, the models can be used for further mouse experiments.
# (§2) The products of ^68Ga-2PEG(3)-FAPI-dimer and ^68Ga-FAPI-46 were each diluted to a concentration of 74 MBq/mL. 7.4 MBq of ^68Ga-2PEG(3)-FAPI-dimer or 7.4 MBq of ^68Ga-FAPI-46 was injected into the HCC-PDX model through the tail vein (3 parallel experiments per group). All PET scans were conducted with an Inveon small animal PET scanner (Siemens Preclinical Solution, USA). The dynamic PET imaging was conducted with a scan duration of 60 min and reconstructed frames of 10×30 s, 10×60 s, 10×120 s, and 9×160 s. The 10 min static PET imaging was conducted with acquisition time points of 0.5 h, 1 h, 2 h, and 4 h after injection. For the blocking experiment, 30 nmol of unlabeled FAPI-46 was added to a ^68Ga-2PEG(3)-FAPI-dimer solution (with NS as a solvent) before injection. An image was iteratively reconstructed with 3D OPMAP 256.pPetRcn (Siemens) and converted into a % ID/g image. Region of interests (ROIs) in the tumor, liver, heart, kidney, and muscle were calculated on PET images to quantify radioactive signals.
# [2] = target: T1, FAP on CAFs (Homo sapiens, UniProt Q12884); experiment: FAP binding assay (radioligand competition) on CAFs; details: radiolabeled compound co-incubated 60 min with corresponding unlabeled FAPI derivative
# T1 construct: FAP-expressing CAFs were inoculated in a 24-well plate; endogenous in cells; host or cells: cancer-associated fibroblasts (CAFs)
# T1 sequence (Q12884 1-760): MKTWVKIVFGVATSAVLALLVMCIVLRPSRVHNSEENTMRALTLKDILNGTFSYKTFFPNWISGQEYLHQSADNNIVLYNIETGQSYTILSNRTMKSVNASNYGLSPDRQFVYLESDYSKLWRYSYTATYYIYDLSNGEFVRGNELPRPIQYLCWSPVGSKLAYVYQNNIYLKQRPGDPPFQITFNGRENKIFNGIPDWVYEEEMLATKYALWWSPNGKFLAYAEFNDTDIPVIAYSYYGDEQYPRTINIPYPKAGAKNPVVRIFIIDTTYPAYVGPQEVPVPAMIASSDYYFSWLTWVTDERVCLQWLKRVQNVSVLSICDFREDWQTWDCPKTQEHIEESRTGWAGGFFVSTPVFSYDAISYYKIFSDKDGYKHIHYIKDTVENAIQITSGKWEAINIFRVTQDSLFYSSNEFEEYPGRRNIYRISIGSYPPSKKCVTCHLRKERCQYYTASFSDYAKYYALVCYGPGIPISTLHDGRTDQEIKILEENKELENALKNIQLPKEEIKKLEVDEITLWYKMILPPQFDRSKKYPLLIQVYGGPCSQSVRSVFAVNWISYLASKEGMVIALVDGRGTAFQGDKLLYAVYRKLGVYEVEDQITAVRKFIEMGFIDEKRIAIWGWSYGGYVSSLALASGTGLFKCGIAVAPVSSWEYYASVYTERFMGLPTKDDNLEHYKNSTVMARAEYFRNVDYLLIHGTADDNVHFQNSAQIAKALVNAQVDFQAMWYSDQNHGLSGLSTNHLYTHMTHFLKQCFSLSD
# Protocol: FAP-expressing CAFs were inoculated in a 24-well plate and cultivated with a 10% (volume fraction) FBS-containing 1640 medium for 48 h before the experiment until a cell density was about 80% to 90%; the medium was changed to an FBS-free 1640 medium; and the ^68Ga-2PEG(3)-FAPI-dimer, ^68Ga-FAPI-46, or ^68Ga-2PEG(3)-FAPI-dimer+11.3 nmol FAPI-46 (for the blocking experiment) was added to the 24-well plate and incubated, with predetermined intervals of 10 min, 30 min, 60 min, 90 min, and 120 min. The FAP binding assay was conducted after a radiolabeled compound and a corresponding unlabeled FAPI derivative (1.27×10^−4-10^−13 mol/L of 2PEG(3)-FAPI-dimer was added to ^68Ga-2PEG(3)-FAPI-dimer; and 2.83×10^−4-1×10^−13 mol/L of FAPI-46 was added to ^68Ga-FAPI-46) were co-incubated for 60 min. A half-inhibitory concentration (IC50s) was calculated by using GraphPad Prism to fit data through nonlinear regression. In each step of the experiment, cells were washed twice with 1 mL of PBS. Finally, CAFs were lysed with 0.5 mL of a 1 mol/L NaOH aqueous solution to conduct radioactive counting with a gamma counter. 3 parallel replicates were set for each experiment.
# [3] = test system: HCC-PDX-2; experiment: PET imaging in HCC-PDX-2 model; format: in vivo, mouse; details: HCC-PDX-2, 7.4 MBq via tail vein
# Protocol: as §1
# as §2, with “For the blocking experiment, 30 nmol of unlabeled FAPI-46 was added to a ^68Ga-2PEG(3)-FAPI-dimer solution (with NS as a solvent) before injection. An image was iteratively reconstructed with 3D OPMAP 256.pPetRcn (Siemens) and converted into a % ID/g image.” left out
smiles,measurement,setting,value
CN(CCCN1CCN(C(=O)COCCOCCOCCNC(=O)CCC(=O)N[C@@H](CCCCNC(=O)CN2CCN(CC(=O)[O-])CCN(CC(=O)[O-])CCN(CC(=O)[O-])CC2)C(=O)NCCOCCOCCOCC(=O)N2CCN(CCCN(C)c3ccc4nccc(C(=O)NCC(=O)N5CC(F)(F)C[C@H]5C#N)c4c3)CC2)CC1)c1ccc2nccc(C(=O)NCC(=O)N3CC(F)(F)C[C@H]3C#N)c2c1.[68Ga+3] [^68Ga-2PEG(3)-FAPI-dimer],uptake in normal organs,"[1]; HCC-PDX-1, 7.4 MBq via tail vein, PET",low and decline rapidly
same,uptake and residence in tumor tissue compared with ^68Ga-FAPI-46,"[1]; HCC-PDX-1, 7.4 MBq via tail vein, PET 0.5 h, 1 h, 2 h, 4 h",better than
same,blocking of tumor uptake by unlabeled FAPI-46,"[1]; two liver cancer PDX models (HCC-PDX-1 and HCC-PDX-2), 30 nmol unlabeled FAPI-46",can be blocked by unlabeled FAPI-46
same,IC50,[2],3.57 nM
same,uptake in normal organs,[3]; PET,low and decline rapidly
same,uptake and residence in tumor tissue compared with ^68Ga-FAPI-46,"[3]; PET 0.5 h, 1 h, 2 h, 4 h",better than
